For one molecule, IC50 results are on record in PMC7335202, “A quaternary ammonium silane antimicrobial triggers bacterial membrane and biofilm destruction” (Scientific Reports, 2020).

For the assay, the target named is T1, Sortase A (Streptococcus mutans, UniProt Q8CM62).
T1 construct: gene srtA
T1 sequence (Q8CM62 1-246): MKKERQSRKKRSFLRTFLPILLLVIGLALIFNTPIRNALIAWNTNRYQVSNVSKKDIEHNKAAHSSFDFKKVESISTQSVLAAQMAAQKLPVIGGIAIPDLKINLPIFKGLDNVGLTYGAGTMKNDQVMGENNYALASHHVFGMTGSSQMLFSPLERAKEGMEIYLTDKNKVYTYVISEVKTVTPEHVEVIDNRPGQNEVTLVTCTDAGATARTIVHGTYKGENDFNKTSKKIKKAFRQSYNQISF
As to the kind of experiment: fluorescent peptide (Dabcyl-QALPETGEE-Edans) cleavage assay with purified sortase A; positive control inhibitor. The class given is biochemical.

Structures are written as SMILES.

As usually defined, the IC50 is the concentration at which inhibition is half-maximal. A high value points to a need for much substance. Molecule `O=C(O)c1cc[c]([Hg][OH])cc1` [pHMB, ρ-hydroxymercuribenzoic acid] came in with an IC50 of 24.5 ± 4.1 µM.
